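Five compound concentrations were applied to cells in 96-well plates for 48 hours; endpoints were derived by simple linear interpolation of the resulting dose-response curve. GI50 is the concentration that inhibits growth by half.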 Calls of active or inactive are those of the source. No stated cut-off is given here; in the data, active = GI50 up to about 1.1 µM and inactive = higher.
How the values were obtained:
Assay in all cases: growth of human tumour cells (NCI), 48 h
SW-620 = test system: SW-620
SNB-19 = test system: SNB-19
KM12 = test system: KM12
UO-31 = test system: UO-31
ACHN = test system: ACHN
HT-29 = test system: HT-29
HL-60 = test system: HL-60
RXF 393 = test system: RXF 393
OVCAR-3 = test system: OVCAR-3
OVCAR-5 = test system: OVCAR-5
EKVX = test system: EKVX
TK-10 = test system: TK-10
K562 = test system: K562
SR = test system: SR
NCI-H226 = test system: NCI-H226

Measured: GI50

N#Cc1cccc(N2C(=O)c3c(c(-c4ccccc4)c(-c4ccc(Sc5ccc(-c6c(-c7ccccc7)c7c(c(-c8ccccc8)c6-c6ccccc6)C(=O)N(c6cccc(C#N)c6)C7=O)cc5)cc4)c(-c4ccccc4)c3-c3ccccc3)C2=O)c1
inactive: SW-620 > 100 µM | SNB-19 29.3 µM | KM12 > 100 µM | UO-31 91.8 µM | ACHN > 100 µM | HT-29 > 100 µM | HL-60 > 100 µM | RXF 393 16.9 µM | OVCAR-3 > 100 µM | OVCAR-5 > 100 µM | EKVX 35.8 µM | TK-10 51.8 µM | K562 > 100 µM

NC1=NC(Cn2nc(-c3ccccc3)c3ccccc3c2=O)=NNC(=O)N1
inactive: SW-620 > 100 µM | SNB-19 > 100 µM | KM12 > 100 µM | UO-31 > 100 µM | SR > 100 µM | ACHN > 100 µM | HT-29 > 100 µM | OVCAR-3 > 100 µM | OVCAR-5 > 100 µM | NCI-H226 > 100 µM | TK-10 > 100 µM | K562 > 100 µM

c1csc(C[N+]23CN4CN(CN(C4)C2)C3)c1
inactive: SW-620 15.7 µM | SNB-19 > 100 µM | KM12 > 100 µM | UO-31 > 100 µM | SR 15.3 µM | ACHN 37.5 µM | HT-29 > 100 µM | HL-60 14.7 µM | OVCAR-3 > 100 µM | OVCAR-5 26.9 µM | NCI-H226 > 100 µM | TK-10 26.4 µM | K562 20 µM

COCC12CC(CC1=O)C1C2ON2c3ccccc3C(=O)C12c1ccccc1 (stereo not given)
inactive: SW-620 > 100 µM | SNB-19 > 100 µM | UO-31 > 100 µM | SR 88.1 µM | ACHN > 100 µM | HT-29 > 100 µM | HL-60 76.4 µM | RXF 393 33.3 µM | EKVX > 100 µM | NCI-H226 > 100 µM | K562 63.7 µM

COCCNC(=O)C1C(=O)N(CCOC)C(=O)/C1=N/N (stereo not given)
inactive: SW-620 > 100 µM | SNB-19 > 100 µM | KM12 > 100 µM | UO-31 > 100 µM | SR > 100 µM | ACHN > 100 µM | HT-29 > 100 µM | HL-60 > 100 µM | OVCAR-3 > 100 µM | EKVX > 100 µM | NCI-H226 > 100 µM | TK-10 > 100 µM | K562 > 100 µM

CSc1ccc(NC(=O)C2c3[nH]c4ccccc4c3C3CCC(C(C)(C)C)CC3C2C(=O)O)cc1 (stereo not given)
inactive: SW-620 17.7 µM | SNB-19 30.5 µM | UO-31 17.5 µM | SR 11.5 µM | ACHN 15.3 µM | HT-29 16.5 µM | HL-60 9.42 µM | RXF 393 20 µM | EKVX 24.3 µM | NCI-H226 15.3 µM | K562 32.3 µM

O=C1C[C@@H]2CCCC[C@@H]2C12SCCS2
inactive: SW-620 > 100 µM | SNB-19 > 100 µM | KM12 > 100 µM | UO-31 32.1 µM | ACHN > 100 µM | HL-60 80 µM | RXF 393 54.2 µM | OVCAR-3 > 100 µM | OVCAR-5 > 100 µM | EKVX > 100 µM | TK-10 > 100 µM | K562 > 100 µM

NC(=O)n1ncc(Cl)c(Cl)c1=O
inactive: SW-620 > 100 µM | SNB-19 > 100 µM | KM12 > 100 µM | UO-31 > 100 µM | ACHN > 100 µM | HT-29 > 100 µM | HL-60 95.3 µM | OVCAR-3 > 100 µM | OVCAR-5 > 100 µM | EKVX > 100 µM | NCI-H226 > 100 µM | TK-10 > 100 µM | K562 > 100 µM

CC(C)=CCC/C(=C/CC/C(C)=C/CCc1ccoc1)C(=O)O
inactive: SW-620 > 100 µM | SNB-19 > 100 µM | KM12 > 100 µM | UO-31 > 100 µM | ACHN > 100 µM | HT-29 > 100 µM | RXF 393 > 100 µM | OVCAR-3 > 100 µM | OVCAR-5 26.5 µM | EKVX > 100 µM | NCI-H226 73.5 µM | K562 > 100 µM

BrC12c3ccccc3Sc3ccccc3C1(Br)c1ccccc12 (stereo not given)
inactive: SW-620 36.2 µM | SNB-19 32.7 µM | KM12 19.9 µM | UO-31 33 µM | SR 11.1 µM | ACHN 24.2 µM | HT-29 34.8 µM | HL-60 5.21 µM | RXF 393 34.2 µM | OVCAR-5 25.5 µM | NCI-H226 16.7 µM | TK-10 35.6 µM | K562 22.2 µM

CS/C(C)=N/OC(=O)NCCCCNc1ccc(N=[N+]=[N-])cc1
inactive: SW-620 58.5 µM | SNB-19 66.4 µM | KM12 29.5 µM | UO-31 20.7 µM | SR 37.8 µM | ACHN 26.2 µM | HT-29 46.2 µM | RXF 393 46 µM | OVCAR-3 27.7 µM | OVCAR-5 > 100 µM | EKVX 45.4 µM | NCI-H226 21 µM | TK-10 33.3 µM | K562 30.8 µM

Cc1cc(O)nc(CNC(=O)c2cccc3ccccc23)n1
inactive: SW-620 > 100 µM | SNB-19 > 100 µM | UO-31 > 100 µM | SR > 100 µM | ACHN > 100 µM | HT-29 > 100 µM | HL-60 > 100 µM | RXF 393 > 100 µM | OVCAR-3 > 100 µM | EKVX > 100 µM | NCI-H226 > 100 µM | TK-10 > 100 µM | K562 > 100 µM

COC1C2C[C@@H](O)CCC2C(C(=O)OCCl)C[C@H]1O (stereo not given in full)
inactive: SW-620 > 100 µM | SNB-19 > 100 µM | KM12 > 100 µM | UO-31 > 100 µM | SR > 100 µM | ACHN > 100 µM | HL-60 > 100 µM | RXF 393 > 100 µM | OVCAR-3 > 100 µM | NCI-H226 > 100 µM | TK-10 > 100 µM | K562 > 100 µM

CCOC(=O)N1CCC(=O)C[C@@H]1C/C=C/P1(=O)O[C@H](c2ccccc2)C(C)N1C(C)C (stereo not given in full)
inactive: SW-620 > 100 µM | SNB-19 > 100 µM | KM12 > 100 µM | UO-31 > 100 µM | SR > 100 µM | ACHN > 100 µM | HT-29 > 100 µM | RXF 393 > 100 µM | OVCAR-3 > 100 µM | OVCAR-5 > 100 µM | EKVX > 100 µM | NCI-H226 > 100 µM | TK-10 > 100 µM | K562 > 100 µM

c1ccc2c(CNCCCCCCNCc3cccc4ccccc34)cccc2c1
inactive: SW-620 4.06 µM | KM12 3.66 µM | UO-31 11.3 µM | SR 2.14 µM | ACHN 15.6 µM | HT-29 2.23 µM | HL-60 1.46 µM | RXF 393 2.19 µM | OVCAR-3 16.4 µM | OVCAR-5 15.9 µM | EKVX 13.2 µM | NCI-H226 17.4 µM | TK-10 12.6 µM | K562 1.56 µM
